Laboratory results as given in ChEMBL document CHEMBL4819022, “Discovery of JNJ-63576253: A Clinical Stage Androgen Receptor Antagonist for F877L Mutant and Wild-Type Castration-Resistant Prostate Cancer (mCRPC)” (J Med Chem, 2021).
pEC50, pIC50: −log10 of the molar value. Active and inactive are the calls of the source. No cut-off for these calls is given here.

What was measured:
[1] = Volume of distribution at steady state in CD1 mouse at 2 mg/kg, iv; type: ADME, organism-based; settings: in vivo, read-out: Vdss
[2] = AUC(0 to last) in CD1 mouse at 10 mg/kg, po; type: ADME, organism-based; design: route oral, time 0 - last, dose 10 mg/kg; settings: CD1, mouse, in vivo
[3] = Apparent passive permeability from apical to basolateral side in MDCK-MDR1 cells in presence P-gp inhibitor; type: ADME, cell-based, Canis lupus familiaris; settings: dog, MDCK-MDR1, with P-gp inhibitor (name and concentration not stated)
VCaP = test: Antiproliferative activity against human VCaP cells expressing wild-type androgen receptor assessed as reduction in cell viability incubated for 5 days in presence of R1881 by CellTiter-glo assay; type: functional, cell-based; settings: 120 h
[4] = test system: liver microsomes (Homo sapiens); test: Half life in human liver microsomes
[5] = test system: T1, Androgen receptor (Homo sapiens), P10275 [F877L]; test: Antagonist activity at AR F877L mutant (unknown origin) transfected in human LNCAP cells cotransfected with ARE-LUC incubated for 20 to 24 hrs in presence of AR agonist R1881 by steady-glo luciferase reporter gene assay relative to control; type: cell-based; settings: filed as antagonist, time 20-24 hrs
T1 sequence (whole entry): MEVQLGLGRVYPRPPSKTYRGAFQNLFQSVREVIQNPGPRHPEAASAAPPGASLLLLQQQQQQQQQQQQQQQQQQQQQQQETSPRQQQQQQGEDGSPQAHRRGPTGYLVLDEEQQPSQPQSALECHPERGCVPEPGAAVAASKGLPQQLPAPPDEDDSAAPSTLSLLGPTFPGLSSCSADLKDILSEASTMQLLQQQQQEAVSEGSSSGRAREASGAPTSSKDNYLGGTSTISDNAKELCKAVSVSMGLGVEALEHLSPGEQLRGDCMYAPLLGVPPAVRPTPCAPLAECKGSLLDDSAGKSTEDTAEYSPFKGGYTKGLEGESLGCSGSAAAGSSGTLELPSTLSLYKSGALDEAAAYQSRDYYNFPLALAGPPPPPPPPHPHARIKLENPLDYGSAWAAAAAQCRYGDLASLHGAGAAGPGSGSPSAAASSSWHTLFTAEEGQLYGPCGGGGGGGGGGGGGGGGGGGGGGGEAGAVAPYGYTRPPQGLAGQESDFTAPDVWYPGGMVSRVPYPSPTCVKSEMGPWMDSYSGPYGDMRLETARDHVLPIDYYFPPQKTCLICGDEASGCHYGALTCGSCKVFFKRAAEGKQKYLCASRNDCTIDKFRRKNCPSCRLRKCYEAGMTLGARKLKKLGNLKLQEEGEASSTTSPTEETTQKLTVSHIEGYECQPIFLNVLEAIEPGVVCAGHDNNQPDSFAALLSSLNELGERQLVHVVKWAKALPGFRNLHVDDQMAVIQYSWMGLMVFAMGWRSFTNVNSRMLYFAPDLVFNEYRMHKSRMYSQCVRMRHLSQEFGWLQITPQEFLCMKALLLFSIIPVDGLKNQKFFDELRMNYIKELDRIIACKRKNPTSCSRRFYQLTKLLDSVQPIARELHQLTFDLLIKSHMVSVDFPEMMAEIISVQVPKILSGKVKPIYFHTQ

[6] = Clearance in CD1 mouse at 2 mg/kg, iv; type: ADME, organism-based; settings: in vivo
[7] = Cmax in CD1 mouse at 10 mg/kg, po; type: ADME, organism-based; design: route oral, dose 10 mg/kg; settings: in vivo
[8] = Oral bioavailability in CD1 mouse at 10 mg/kg; type: ADME, organism-based; settings: CD1, mouse, in vivo
[9] = Half life in CD1 mouse at 2 mg/kg, iv; type: ADME, organism-based; settings: in vivo
[10] = biological target: T2, Androgen receptor (Rattus norvegicus) (UniProt P15207); settings: Sprague-Dawley, dose 30.0 mg/kg, time 10.0 day
T2 sequence (whole entry): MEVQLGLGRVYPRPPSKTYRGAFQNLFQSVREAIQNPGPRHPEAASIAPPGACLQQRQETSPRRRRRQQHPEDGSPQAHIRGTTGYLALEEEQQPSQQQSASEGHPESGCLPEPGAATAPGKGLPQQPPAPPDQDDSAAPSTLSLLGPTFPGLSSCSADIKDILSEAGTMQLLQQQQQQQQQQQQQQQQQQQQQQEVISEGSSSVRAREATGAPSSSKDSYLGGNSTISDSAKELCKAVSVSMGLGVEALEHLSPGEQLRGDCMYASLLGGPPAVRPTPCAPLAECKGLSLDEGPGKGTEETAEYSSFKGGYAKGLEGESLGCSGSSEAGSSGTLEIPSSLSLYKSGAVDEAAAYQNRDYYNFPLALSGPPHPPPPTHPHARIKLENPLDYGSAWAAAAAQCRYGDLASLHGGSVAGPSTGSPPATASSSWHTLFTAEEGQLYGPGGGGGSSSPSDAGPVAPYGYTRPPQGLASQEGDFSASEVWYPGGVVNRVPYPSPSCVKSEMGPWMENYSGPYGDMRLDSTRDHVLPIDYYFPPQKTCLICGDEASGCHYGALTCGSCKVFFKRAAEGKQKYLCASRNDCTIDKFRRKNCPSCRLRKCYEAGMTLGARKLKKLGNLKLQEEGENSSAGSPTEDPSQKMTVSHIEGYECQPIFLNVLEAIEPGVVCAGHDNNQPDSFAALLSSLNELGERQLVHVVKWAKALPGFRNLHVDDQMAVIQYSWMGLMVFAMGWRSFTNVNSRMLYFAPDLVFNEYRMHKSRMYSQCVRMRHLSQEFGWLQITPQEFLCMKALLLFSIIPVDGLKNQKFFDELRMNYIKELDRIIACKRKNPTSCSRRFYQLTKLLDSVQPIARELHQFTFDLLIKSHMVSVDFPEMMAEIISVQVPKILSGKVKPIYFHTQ

[11] = biological target: T2, Androgen receptor (Rattus norvegicus); settings: Sprague-Dawley, dose 30.0 mg/kg, time 10.0 day; remark: listed apart in the source
[12] = biological target: T2, Androgen receptor (Rattus norvegicus); settings: Sprague-Dawley, dose 30.0 mg/kg, time 10.0 day; remark: listed apart in the source
[13] = biological target: T2, Androgen receptor (Rattus norvegicus); settings: Sprague-Dawley, dose 30.0 mg/kg, time 10.0 day; remark: listed apart in the source
Androgen receptor = Androgen receptor (Homo sapiens, UniProt P10275, F877L)
[14] = biological target: T2, Androgen receptor (Rattus norvegicus); settings: Sprague-Dawley, dose 30.0 mg/kg, time 10.0 day; remark: listed apart in the source
[15] = Drug metabolism in dog liver microsomes assessed as unchanged parent compound at 10 uM incubated for 60 mins in presence of glutathione and NADPH by LC-MS/MS analysis; type: ADME, Canis lupus familiaris, Microsome; settings: read-out: Drug metabolism
[16] = Drug metabolism in dog liver microsomes assessed as unchanged parent compound at 10 uM incubated for 60 mins in presence of glutathione by LC-MS/MS analysis; type: ADME, Canis lupus familiaris, Microsome; settings: read-out: Drug metabolism
LNCaP = test: Antitumor activity against human LNCaP cells harboring AR F877L mutant xenografted in SCID mouse assessed as tumor growth inhibition at 30 mg/kg, po QD administered via gavage for 28 days and measured twice weekly relative to control; type: functional; settings: time 28 day, read-out: TGI
[17] = Drug concentration in SCID mouse plasma xenografted with human LNCaP cells harboring AR F877L mutant at 30 mg/kg, po QD administered via gavage for 28 days; type: ADME, organism-based; settings: time 28 day, read-out: Ct

SMILES	Vd [1] [L/kg]	AUC(0-t) [2] [ng·h/mL]	Papp A→B [3] [×10⁻⁶ cm/s]	pIC50 (VCaP)	half-life [4] [min]	Imax [5] [%]	clearance [6] [mL/min/kg]	Cmax [7] [nM]	bioavailability [8] [%]	half-life [9] [min]	inhibition [10]	inhibition [11]	inhibition [12]	inhibition [13]	pEC50 (Androgen receptor)	inhibition [14]	remaining at 1 h, 10 µM [15] [%]	remaining at 1 h, 10 µM [16] [%]	inhibition in vivo at 30 mg/kg (LNCaP) [%]	concentration at […] [17] [ng/mL]
CN1CCC(Oc2ccc(N3C(=S)N(c4cnc(C#N)c(C(F)(F)F)c4)C(=O)C34CCC4)cn2)CC1	7.69	10900	16.2	6.40	173	> 90	8.14	1300	56	750										
N#Cc1ncc(N2C(=O)C3(CCC3)N(c3ccc(OC4CCNCC4)cc3)C2=S)cc1Cl	8.47	4600	12.2	6.30	> 180	> 90	26.7	780	50	222	Active	Active	Active	Active	7.35	Active				
COc1cc(N2C(=O)C3(CCC3)N(c3ccc(OC4CCN(C)CC4)cc3)C2=S)cnc1C#N	3.7	20100		6.58	114	> 90	6.9	2800	87	468	Active	Active	Active	Active	6.19	Active				
N#Cc1ncc(N2C(=O)C3(CCC3)N(c3ccc(O)cc3)C2=S)cc1C(F)(F)F																	91.9			
Cc1cc(N2C(=O)C3(CCC3)N(c3ccc(OC4CCNCC4)nc3)C2=S)cnc1C#N	4.35	7800	3.38	6.58	> 180	> 90	19.4	1880	92	180										
N#Cc1ncc(N2C(=O)C3(CCC3)N(c3ccc(O)nc3)C2=S)cc1C(F)(F)F						> 90											100	100		
N#Cc1ncc(N2C(=O)C3(CCC3)N(c3ccc(OC4CCNCC4)nc3)C2=S)cc1Cl	6.92	6000	11.5	6.60	> 180	> 90	25.4	1880	118	246	Active	Active	Active	Active		Active				
N#Cc1ncc(N2C(=O)C3(CCC3)N(c3cnc(OC4CCNCC4)nc3)C2=S)cc1C(F)(F)F						67														
N#Cc1ncc(N2C(=O)C3(CCC3)N(c3ccc(CN4CCNCC4)cc3)C2=S)cc1C(F)(F)F	16.8	8700	6.31	5.56	> 180	> 90	18.2	840	97	726	inactive	inactive	inactive	inactive		inactive				
CN1CCC(Oc2ncc(N3C(=S)N(c4cnc(C#N)c(C(F)(F)F)c4)C(=O)C34CCC4)cn2)CC1						> 90														
CNC(=O)c1ccc(N2C(=S)N(c3ccc(C#N)c(C(F)(F)F)c3)C(=O)C2(C)C)cc1F [ENZALUTAMIDE]				6.83							Active	Active	Active	Active		Active				
N#Cc1ncc(N2C(=O)C3(CCC3)N(c3ccc(OC4CCNCC4)nc3)C2=S)cc1C(F)(F)F [TRC-253]	6.11	4900	5.62	6.58	> 180	> 90	15	660	45	359	Active	Active	Active	Active		Active	98.8	100	87	1750
